Experimental data: US4511568A, “CNS-Depressant pyrazolopyridines” (ICI Americas Inc., priority 1982, dated 1985)

Experiments:
[1] = tested on: [^3 H]flunitrazepam binding, lysed mitochondrial-synaptosomal (P2) fraction from the cerebral cortex; settings: general statement on reference compounds; cited from earlier work
rats = assay: Shock-Induced Suppression of Drinking (Rats) (SSD) Test; type: in vivo, rat; settings: significant, P less than 0.05, Students' t-test, vs control
Method: Male rats in the weight range of 200 to 220 grams are deprived of water for 48 hours and deprived of food for 24 hours before testing. Normally, the rats are orally intubated (5 ml/kg) with the test compound (based on mg/kg body weight). The vehicle control group of rats is also intubated by mouth. A positive control group of rats is also orally administered a control dose of 18 mg/kg of chlordiazepoxide. Random selection of the rats is utilized in dosing. The rats are returned to the cage for one hour. Sixty minutes after drug administration, the rat is quietly removed from its cage and the hind feet wiped with Signa electrode gel made by Parker Laboratories or Orange, N.J. When intraperitoneal (i.p.) administration was used, the protocol was identical except that the drugs were administered (5 ml/kg) 30 minutes prior to testing. The rat is placed on the floor in the chamber facing the licking tube. The animal is allowed 5 minutes to make 20 licking responses and receive the first shock (0.5 mA). […] This period is automatically started, counted and terminated. The number of licks and shocks are recorded. The activity of the compound tested is evaluated by comparing the mean shocks of the group dosed with the test compound to both the mean shocks of the vehicle and positive control groups via a Students' t-test. […]

[2] = tested on: [^3 H]flunitrazepam binding, lysed mitochondrial-synaptosomal (P2) fraction from the cerebral cortex; assay: [^3 H]flunitrazepam binding test; settings: 0.2 nM [^3 H]flunitrazepam, rat cerebral cortex membranes, 90 min at 0° C.
[3] = approximate oral LD50 in the rat; settings: in vivo
monkeys = assay: oral administration to monkeys, deaths; type: in vivo, monkey; settings: 100 mg/kg

Compound | effect on flunitrazepam binding (known compounds) [1] | increase in the number of shocks taken (anti-conflict / anti-anxiety activity) (rats) | effect on flunitrazepam binding [2] | LD50 [3] [mg/kg] | deaths (monkeys)
CCCCNc1c(C(=O)OCC)c(C)nc2c1cnn2CC [tracazolate] | enchancement of the binding | – | – | – | –
CCCCNc1c(C(=O)OCC)cnc2c1cnn2CC [cartazolate] | enchancement of the binding | – | – | – | –
C=CCN1Cc2nc3c(cnn3CCCCC)c(N)c2C1=O [Example 4, 6-Allyl-4-amino-6,7-dihydro-1-n-pentylpyrazolo[3,4-b]pyrrolo[3,4-e]pyridin-5(1H)-one] | – | showed activity | activity as displacers of flunitrazepam binding | – | –
CCCCCn1ncc2c(N)c3c(nc21)CN(CCC)C3=O [Example 5, 4-Amino-6,7-dihydro-1-n-pentyl-6-n-propylpyrazolo[3,4-b]pyrrolo[3,4-e]pyridin-5(1H)-one] | – | showed activity | activity as displacers of flunitrazepam binding | > 800 | no deaths
